Measured values published in patent US12162861B2, “Dopamine D3 receptor selective antagonists/partial agonists; method of making; and use thereof” (THE UNITED STATES OF AMERICA, AS REPRESENTED BY THE …, priority 2016, dated 2024).

Key:
[1] = Pharmacokinetics in rats after oral administration; format: in vivo, rat; details: 10 mg/kg oral
Procedure: Male Long-Evans rats with body weights ˜250 grams (Charles River Laboratories, Raleigh, NC, USA) were used in this study. All rats were housed individually in a climate-controlled room under a 12 h light/dark cycle. Food and water were available ad libitum throughout the experiments. All experimental procedures were conducted in accordance with the Guide for the Care and Use of Laboratory Animals and were approved by the Animal Care and Use Committee of the National Institute on Drug Abuse of the U.S. National Institutes of Health. Experimental (oral gavage) procedures: The animals were gently restrained (grasp the animal by the loose skin of the neck and back) to immobilize the head but not such that the animals vocalize or show other signs of distress. Maintained the animal in an upright (vertical) position and passed the gavage needle (19-gauge) along the side of the mouth. Following the roof of the mouth, advanced the needle into the esophagus and toward the stomach. After the needle was passed to the correct length, the compound was injected. […] A volume of 3 μL was injected onto the ultra-performance liquid chromatography (UPLC) instrument for quantitative analysis using a temperature-controlled autosampler operating at 10° C. […] Quantification was performed in multiple-reaction monitoring (MRM) mode. […]

[2] = Phase I metabolic stability in monkey liver microsomes; format: in vitro ADME, rhesus monkey; details: monkey liver microsomes, Phase I
Procedure: Methods: Phase I metabolic stability assay was conducted in rat and rhesus monkey liver microsomes. For phase I metabolism, the reaction was carried out with 100 mM potassium phosphate buffer, pH 7.4, in the presence of NADPH regenerating system (1.3 mM NADPH, 3.3 mM glucose 6-phosphate, 3.3 mM MgCl2, 0.4 U/mL glucose-6-phosphate dehydrogenase, 50 μM sodium citrate). Reactions in triplicate were initiated by addition of the liver microsomes to the incubation mixture (compound final concentration was 10 μM; 0.5 mg/mL microsomes). Negative controls in the absence of cofactors were carried out to determine the specific cofactor-free degradation. Compound disappearance was monitored via LC/MS/MS. Chromatographic analysis was performed using an Accela™ ultra high-performance system consisting of an analytical pump, and an autosampler coupled with TSQ Vantage mass spectrometer (Thermo Fisher Scientific Inc., Waltham MA). […] The mobile phase used was composed of 0.1% Formic Acid in Acetonitrile and 0.1% Formic Acid in H2O with gradient elution, starting with 10% (organic) linearly increasing to 99% up to 2 min, maintaining at 99% (2-2.5 min) and re-equilibrating to 10% by 2.7 min. The total run time for each analyte was 5.0 min.

Row | SMILES | exposures in brain and plasma, R- versus S-enantiomer ([1]; FIG. 12A) | % at 30 min. ([2]; 30 min) [%] | % at 60 min. ([2]; 60 min) [%] | Kp ([1]; male, Long-Evans, rat, brain and plasma, read-out: brain/plasma ratio)
1 | CCc1cc(Cl)c(OC)c(N2CCN(C[C@H](O)CCNC(=O)c3cc4ccccc4[nH]3)CC2)c1 [(R)-29, (R)—N-(4-(4-(3-chloro-5-ethyl-2-methoxyphenyl)piperazin-1-yl)-3-hydroxybutyl)-1H-indole-2-carboxamide] | twice higher exposures in both brain and plasma | 9 | 4 | –
2 | CCc1cccc(N2CCN(C[C@@H](O)CCNC(=O)c3cc4ccccc4[nH]3)CC2)c1Cl [(S)-19, (S)—N-(4-(4-(2-chloro-3-ethylphenyl)piperazin-1-yl)-3-hydroxybutyl)-1H-indole-2-carboxamide] | – | – | – | 6
